Experimental data: patent publication EP3027627B1, “2-[5-[N-(4-FLUOROPHENYL)CARBAMOYL]PYRIMIDIN-2-YLSULFANYLMETHYL]-4-(TRIFLUOROMETHOXY)PHENYL]BORONIC ACID” (Syntrix Biosystems Inc., priority 2013, dated 2015)

How the values were obtained:
[1] = Stability in human liver microsomes (NADPH-dependent); type: in vitro ADME
Description: Liver microsomes are an in vitro model for in vivo metabolism and elimination of a drug by the liver (and gut) cytochrome P450 system. A compound's stability in liver microsomes in vitro is predictive of its metabolism and elimination in vivo. We examined the stability of SX-682 in liver microsomes together with several other cogeners to quantify the microsomal stability of SX-682 and identify potential structure-activity relationships (SAR) predictive of stability or instability (see Figure 5).
The compounds were incubated in duplicate with human liver microsomes at 37°C. The reaction contained microsomal protein in 100 mM potassium phosphate, 2 mM NADPH, 3 mM MgCl2, pH 7.4. A control was run for each compound omitting NADPH to detect NADPH-independent degradation. An aliquot was removed from each experimental and control reaction at 0, 10, 20, 30, and 60 minutes and mixed with an equal volume of ice-cold Stop Solution (0.3% acetic acid in acetonitrile containing haloperidol, diclofenac, or other internal standard). Stopped reactions were incubated for at least ten minutes at -20°C, and an additional volume of water was added. The samples were centrifuged to remove precipitated protein, and the supernatants were analyzed by LCMS/MS to quantitate the remaining compound. Data were converted to percent remaining by dividing by the time zero concentration value. Data were fit to a first-order decay model to determine half-life. Intrinsic clearance was calculated from the half-life and the protein concentrations: CLint = ln(2)/(t½ [microsomal protein]).

neutrophils [2] = test: Murine air-pouch model of inflammation; type: in vivo; settings: depending on the dose given
[3] = Stability in human plasma; type: in vitro ADME
Procedure: The in vitro stability of SX-682 and the cogeners of Metabolic Stability Example 1 (Figure 5) were further studied in human plasma. The reactions were initiated by the addition of 5 µL of a 500 µM DMSO stock solution to 495 µL of preheated plasma solution to yield a final concentration of 5 µM. The assays were performed in a heat block at 37°C and conducted in duplicate. Samples (50 µL) were taken at 0, 30, 60, 120, 240 min and added to 150 µL acetonitrile in order to deproteinize the plasma. The samples were subjected to vortex mixing for 1 min and then centrifugation for 15 min at 14,000 rpm. The clear supernatants were analyzed by LC-MS.
The in vitro plasma half life (t½) was calculated using the expression t½ = ln(2)/b, where b is the slope found in the linear fit of the natural logarithm of the fraction remaining of the parent compound vs. incubation time.

neutrophils [4] = test: Ozone rat model of pulmonary inflammation (neutrophil influx into BALF); type: in vivo, Sprague-Dawley rats; settings: for influx of neutrophils into the lungs (BALF) as compared to control rats treated with vehicle only: 1 mg/kg intravenously once at t = 0, 1 ppm ozone for 4 hours, BALF at t = 24 hours, n = 4 per cohort
Procedure: SX-682 was assayed in an in vivo rat model of pulmonary inflammation. Activity in this model of pulmonary inflammation provides evidence that supports the use of SX-682 in the treatment of a number of pulmonary inflammatory diseases, including chronic obstructive pulmonary disease (COPD) and bronchopulmonary dysplasia (BPD). In this experiment, Sprague-Dawley rats (n = 4 per cohort) were dosed intravenously only once at t = 0 with either vehicle control (dimethylformamide/PEG400/saline, 40:40:20), positive inhibitor control (SX-576, 1 mg/kg) or the test compound (SX-682, 1 mg/kg). The rats were then placed in air (negative exposure group; vehicle control only) or 1 ppm ozone (positive exposure group; vehicle control, positive inhibitor control SX-576, and test compound SX-682) for 4 hours. The rats were then sacrificed at t = 24 hours, and the bronchoalveolar lavage fluid (BALF) was collected. The cells were spun down, stained with Wright-Giemsa and counted. In the negative exposure group, no neutrophils were observed when stained. In the ozone exposed rats treated with vehicle however, there was a brisk influx of neutrophils of approximately 14,000 per mL of BALF (see Figure 4).

CXCR1 [5] = molecular target: T1, CXCR1 (Homo sapiens, UniProt P25024); test: Wash-resistant inhibition of CXCL8-mediated calcium flux after inhibitor washout, CXCR1 RBL cells; type: cell-based; settings: RBL cells stably transfected with CXCR1; 30 minutes incubation at 37°C with 0.4, 2, 10 µM, then washout; time points up to 12 h
T1 construct: expressed in transfected cells; host or cells: RBL cells (stably transfected)
T1 sequence (P25024 1-350): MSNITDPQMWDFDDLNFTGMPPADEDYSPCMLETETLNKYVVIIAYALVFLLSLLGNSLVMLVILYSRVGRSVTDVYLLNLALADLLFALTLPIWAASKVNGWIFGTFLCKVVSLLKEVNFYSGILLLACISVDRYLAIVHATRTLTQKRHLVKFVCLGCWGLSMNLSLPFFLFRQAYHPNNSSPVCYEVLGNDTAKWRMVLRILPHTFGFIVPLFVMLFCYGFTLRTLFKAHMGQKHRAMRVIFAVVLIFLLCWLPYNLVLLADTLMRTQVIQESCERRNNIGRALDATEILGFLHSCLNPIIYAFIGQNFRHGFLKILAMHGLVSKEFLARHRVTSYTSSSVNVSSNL
Procedure: (§1) SX-682 contains a boronic acid moiety that has the potential to form a transient covalent linkage with hydroxyl-bearing amino acid side chains in the binding site of its protein target.
(§2) In order to test this hypothesis, RBL cells (10^7 cells/mL) stably transfected with either CXCR1 or CXCR2 were (1) incubated with SX-682 at various concentrations for 30 minutes at 37°C, (2) washed and resuspended in assay buffer (RPMI/2% serum) at room temperature, and (3) assayed for CXCL8-mediated calcium response at time points up to 12 h after inhibitor washout. The concentrations of SX-682 tested were 0 (positive control), 0 (negative control), 0.4, 2, and 10 µM. At 30 minutes before each time point, a 56.25 µL aliquot of the cells were removed and loaded for 30 minutes at room temperature in the dark with FLIPR-3 reagent (262.5 µl per tube). Following FLIPR-3 incubation, cells were assayed for CXCL8 mediated intracellular calcium release as described in Pharmacology Example 1.

CXCR1 [6] = molecular target: T1, CXCR1; test: Inhibition of CXCL8-mediated intracellular calcium release, RBL cells stably transfected with CXCR1; type: cell-based; settings: CXCL8 25 nM, mean ± SE, n = 4
Procedure: (§3) Briefly, cells (either isolated human neutrophils or RBL cells stably transfected with either CXCR1 or CXCR2) were suspended in HBSS^- (without Ca^2+ and Mg^2+) containing 10 mM HEPES and FLIPR Calcium 3 dye (3.1 x 10^7 cells in total volume 1.7 mL). Cells were aliquoted (200 µL of the cell suspension per tube, 8 tubes total) and 2 µL of the designated compound (with appropriate dilutions) were added to each of 6 tubes. As controls, 2 µL of DMSO (1% final concentration) were added to 2 other tubes. Cells were incubated for 30 min at 37 °C. After dye loading, tubes were centrifuged at 6,000 rpm for 1 min, supernatant was removed and the cell pellet was re-suspended in 200 µL of HBSS^+ (with Ca^2+ and Mg^2+) containing 10 mM HEPES. […] The cell suspension was aliquoted into a 96-well Reading Plate (Coming) in a volume of 90 µL (10^5 cells/well). […] After 15 sec of reading the basal level of fluorescence by FlexStation II, 10 µL of CXCL8 or HBSS^-were automatically transferred from the Compound Plate into the Reading Plate (final concentration of CXCL8 was 25 nM). Changes in fluorescence were monitored (λex = 485 nm, λem = 525 nm) every 5 s for 240 to 500 s at room temperature.
(§4) The maximum change in fluorescence, expressed in arbitrary units over baseline (Max-Min), was used to determine the CXCL8 response. […]

[7] = test system: isolated human neutrophils; test: Inhibition of CXCL8-mediated intracellular calcium release, isolated human neutrophils; type: cell-based; settings: Neutrophil; human neutrophils (Human PMNs); CXCL8 25 nM; mean ± SE, n = 4
Procedure: as §3, §4

CXCR2 [8] = molecular target: T2, CXCR2 (Homo sapiens, UniProt P25025); test: Wash-resistant inhibition of CXCL8-mediated calcium flux after inhibitor washout, CXCR2 RBL cells; type: cell-based; settings: RBL cells stably transfected with CXCR2; 30 minutes incubation at 37°C with 0.4, 2, 10 µM, then washout; time points up to 12 h
T2 construct: expressed in transfected cells; host or cells: RBL cells (stably transfected)
T2 sequence (P25025 1-360): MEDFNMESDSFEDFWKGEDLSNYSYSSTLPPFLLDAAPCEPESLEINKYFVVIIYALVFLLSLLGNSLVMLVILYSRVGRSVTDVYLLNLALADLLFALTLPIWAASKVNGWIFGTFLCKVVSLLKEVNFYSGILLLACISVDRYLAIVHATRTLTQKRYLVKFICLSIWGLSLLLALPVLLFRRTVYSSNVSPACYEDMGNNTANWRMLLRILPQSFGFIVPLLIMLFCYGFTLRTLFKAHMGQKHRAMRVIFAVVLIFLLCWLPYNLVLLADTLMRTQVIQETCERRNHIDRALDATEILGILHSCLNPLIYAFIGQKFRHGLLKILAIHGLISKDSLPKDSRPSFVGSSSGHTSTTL
Procedure: as §1, §2

CXCR2 [9] = molecular target: T2, CXCR2; test: Inhibition of CXCL8-mediated intracellular calcium release, RBL cells stably transfected with CXCR2; type: cell-based; settings: CXCL8 25 nM, mean ± SE, n = 4
Procedure: as §3, §4

[10] = 37°C, 2 mM NADPH, pH 7.4, first-order decay model
[11] = 5 µM, incubation at 37°C, LC-MS/MS detection

Row | Compound | t½ (Half-life) [1, 10] [min] | activity on neutrophils in vivo (neutrophils [2]) | t½ [3, 11] [min] | fold reduction in plasma half-life ([3]; structural comparison with sulfur / F3CO-bearing cogeners) [fold] | influx of neutrophils into the lungs (BALF) as compared to control rats treated with vehicle only (neutrophils [4]) | inhibition of CXCL8-mediated intracellular calcium flux sustained after washout (CXCR1 [5]) | IC50 (CXCR1 [6]) [nM] | inhibition of neutrophil chemotaxis, comparison of the two inhibitors tested (neutrophils [4]; SX-682 vs SX-576, each 1 mg/kg intravenously, ozone exposed rats) | inhibition of neutrophil influx into the BALF sustained after a single dose (neutrophils [4]; single dose of 1 mg/kg intravenously, ozone exposed rats) [h] | IC50 [7] [nM] | fold larger half life than SX-671 or SX-576 [1] [fold] | half-life ([1]; 37°C, 2 mM NADPH, pH 7.4, first-order decay model, read-out: t½ (Half-life)) [min] | inhibition of CXCL8-mediated intracellular calcium flux sustained after washout (CXCR2 [8]) | IC50 (CXCR2 [9]) [nM] | half-life at 5 µM ([3]; 5 µM, incubation at 37°C, LC-MS/MS detection, read-out: t½) [min]
1 | O=C(Nc1ccc(F)cc1)c1ccc(SCc2ccccc2B(O)O)nc1 [SX-517] | 405 | both inhibitory and agonist activity on neutrophils were achieved | 113 | 5 |  |  |  |  |  |  |  |  |  |  | 
2 | O=C(Nc1ccc(F)cc1)c1ccc(SCc2cc(OC(F)(F)F)ccc2B(O)O)nc1 [SX-576, reference compound] | 50 | both inhibitory and agonist activity on neutrophils were achieved | 533 |  | significantly decreased the influx of neutrophils |  |  |  |  |  |  |  |  |  | 
3 | O=C(Nc1ccc(F)cc1)c1cnc(SCc2cc(OC(F)(F)F)ccc2B(O)O)nc1 [SX-682, 2-(2-Boronic acid-5-trifluoromethoxy-benzylsulfanyl)-pyrimidine-5-carboxylic acid (4-fluoro-phenyl)-amide] |  |  |  |  | significantly decreased the influx of neutrophils | at least 12 hours | 42 ± 3 | markedly more robust inhibition of neutrophil chemotaxis | 24 | 55 ± 6 | 6 | 325 | at least 12 hours | 20 ± 2 | 693
